Data from the NIST ThermoML archive (doi:10.1016/j.jct.2012.01.022).
Numbers after ± are expanded uncertainties.

Conditions: 298.15 K, 101.33 kPa, Liquid; for viscosity: Capillary tube (Ostwald / Ubbelohde) method; for speed of sound: Sing-around technique in a fixed-path interferometer; for mass density: Vibrating tube method

With `CCCCCCCCCCO` [decan-1-ol] the viscosity was 11.19 ± 0.062 mPa·s, the speed of sound was 1379.8 ± 0.9 m/s and the mass density was 826.47 ± 0.14 kg/m3.

Compound `NCCN` [ethane-1,2-diamine] has a viscosity of 1.405 ± 0.012 mPa·s, a speed of sound of 1671.6 ± 1.3 m/s and a mass density of 892.389 ± 0.23 kg/m3.

`CCCCCCO` [hexan-1-ol] showed a viscosity of 4.439 ± 0.042 mPa·s, a speed of sound of 1303.2 ± 1.7 m/s and a mass density of 815.265 ± 0.41 kg/m3.

In the case of `CCCCCCCCO` [octan-1-ol], the viscosity is reported as 7.143 ± 0.041 mPa·s, the speed of sound is reported as 1347.5 ± 0.9 m/s and the mass density is reported as 821.794 ± 0.14 kg/m3.
